Values quoted from earlier work as cited in US20230136789A1, “POLYMER IMPLANTS” (Foundry Therapeutics, Inc., priority 2020, published 2023).

pKa: about 8.0
SMILES: CCCCN1CCCCC1C(=O)Nc1c(C)cccc1C (stereo not shown) [bupivacaine]
